Test results as given in patent US5493007A, “Platelet aggregation inhibitors having high specificity for GPIIBIIIA” (Genentech, Inc., priority 1994, dated 1996).
Several values for one entry are separate records, joined by “and”; a condition that tells them apart may be missing. Identical values can stand only once. Like-named read-outs stand apart in the source and are kept apart here. Where a SMILES comes first, the peptide text is derived from it. Bridges are numbered along the chain shown (N, C = ends). [ ]: non-standard residue; d: D form. Orn = NCCC[C@H](N)C(=O)O

Key:
[1] = target: GP IIb IIIa (Homo sapiens, UniProt P05106+P08514); assay: GP IIb IIIa -von Willebrand factor (vWF) ELISA Assay; assay type: binding; design: GP IIb IIIa, prepared by the method of Fitzgerald et al; from tissue
Protocol: Microtiter plates are coated with 1.0 μg/ml GP IIb IIIa, prepared by the method of Fitzgerald et al., (Anal. Biochem. 151:169-177 [1985]) and allowed to incubate overnight in coat buffer. The plates are then washed three times in wash buffer (0.05% Tween 20 in PBS) and 150 μl of assay buffer is added and allowed to incubate for 1-2 hours at room temperature on plate shaker. The plates are washed three times and 50 μl of 2x inhibitor in assay buffer (Assay buffer: 0.5% BSA/50 mM Tris, 100 mM NaCl, 1.0 mM CaCl2, 1.0mM MgCl2, 1.0 mM MnCl2; coat buffer is the same but without BSA) is added. Fifty μl of 4.0 μg/ml vWF (prepared as described by Ledford et al., Thrombosis and Haemostasis, 64(4): 569-575 [1990]) in assay buffer is then added and allowed to incubate for one hour at room temperature on plate-shaker. The plates are washed three times and the antibody mixture is added (1:5000 of mouse anti-vWF and 1:5000 of rabbit-anti-mouse-Fc-HRP, both commercially available) in assay buffer and incubated for 1 hour at room temperature on plate-shaker. Plates are again washed three times and 100 μl of substrate solution (10 mg OPD, 6.5 μl H2 O2, 15 ml phosphate citrate buffer) is added and incubated at room temperature. The color change of OPD/H2 O2 reagent is read at 492 nm with a 405 nm reference wavelength on the filter photometer.

[2] = test system: Beagle dogs; assay: Bleeding time, dog model; assay type: in vivo; details: for bleeding time during the infusion: dose printed for 7/46: bolus 125 μg/kg plus 3 μg/kg/min, 7/1 value is a mean
Protocol: Beagle dogs were premedicated with atropine (3 mg subcutaneously) and anesthetized with intravenous sodium pentobarbital solution (65 mg/ml, to effect, induction and maintenance). The dogs were placed in dorsal recumbency on heating pads, intubated, and placed on oxygen-room air mixture (free breathing). A pulse oximeter was attached and heart rate and oxygen saturation monitored. An indwelling catheter was placed in one cephalic vein through which normal saline drip (for patency) and maintenance anesthetic doses were administered, and in one saphenous vein through which test or control compound was bolused or infused.
At several timepoints bleeding times were measured. The forearm of the dog was closely shaven. A Surgicutt® automatic bleeding time device was employed to make an approximate 1 cm clean incision through the skin. Blood was blotted with the edge of a Whatman's #4 filter paper every 15 seconds. Bleeding time was measured as the time from incision to the last time blood was absorbed by the filter paper.

[3] = target: Fibronectin Receptor (Homo sapiens, UniProt P05556+P08648); assay: Human Fibronectin-Fibronectin Receptor ELISA Assay; assay type: binding; design: octylglucoside (OG) extracted human placenta; from tissue; host or cells: human placenta; details: human placenta fibronectin receptor, fibronectin-coated plates; read-out: ELISA IC50 Fibronectin FnR
Protocol: Fibronectin receptor is purified according to the procedures of Pytela et al., (Methods Enzymol. 144:475 […]). Briefly, fibronectin receptor is purified employing an Arg-Gly-Asp affinity chromatography from (100 mM) octylglucoside (OG) extracted human placenta. The OG extract is filtered over Sepharose 6B GRGDSPK column. The column is washed three times with three column volumes of Tris-buffered saline (TBS) TBS, 1 mM CaCl2, and 25 mM OG. The receptor is eluted with TBS, 20 mM EDTA, and 25 mM Octyl thioglucoside, and is stored in 1 mM CaCl2, 1 mM MgCl2, at -80° C.
Microtiter plates are coated with 110 μl human fibronectin (at 2 μg/ml) in TBS. Plates are washed three times with TBS containing 0.05% Tween 20. Test inhibitors are then added after washing in 10 microliter aliquots. The fibronectin receptor is added in 2-fold serial dilutions with TBS containing 20 mM octyl glucoside and 2 mM MnCl2. Plates are incubated three hours at room temperature, and washed with 200 μl TBS-Tween 20 buffer. 100 μl of affinity-purffied rabbit anti-human fibronectin receptor antibody is added to the wells and the plates are incubated two hours, washed twice with TBS-Tween and once with distilled water. Affinity-purified goat anti-rabbit IgG conjugated to horseradish peroxidase (100 μl) is added to each well followed by incubation for 60 minutes at room temperature. Plates are again washed twice with TBS-Tween and distilled water. 100 μl of substrate mixture (10 mg o-phenylenediamine in 25 ml 0.1M citrate-phosphate buffer, pH 5.0 6 μ30% H2 O2) is added to the plates and allowed to develop. The development process is stopped by adding 50 μl of 4N H2 SO4 to each well and read at […].

[4] = test system: platelet rich plasma (PRP); assay: Rabbit ex-vivo platelet aggregation (XPA), ADP-induced; assay type: in vivo; details: Example 1
Protocol: Catheters are flushed and locked after every sample.
[…] of PRP is placed in a disposable glass cuvette with a stir bar. The cuvette is placed in the temperature regulated light path of a light transmittance aggregometer (Chrono-log) and equilibrated to a 37° C. Baseline transmittance is recorded for 30 seconds, after which […] of ADP (1 mM) is added and the change in transmittance recorded. The maximum change from baseline (dT) is noted for each sample. The extent of inhibition of XPA that is produced by an inhibitor is calculated for each animal as follows: Mean dTs are calculated for the pre and post infusion values, and then, percent inhibition is calculated as (1-dt (post)/ddt (pre))×100.

[5] = test system: New Zealand White rabbits; assay: Rabbit cutaneous bleeding time (CBT); details: for Rabbit BT Ratio: Example 1, at the % P.A. inhibition given
Protocol: Unanesthetized male New Zealand White rabbits (2.5-3.5 kg) are placed in a standard rabbit restrainer. Ears are shaved and a 20 G Teflon catheter with flowswitch (Viggo) is placed in the medial artery, flushed with saline and locked with 1 ml of heparinized saline (10 m/ml). A 22 G catheter (Abbott) fitted with an injection cap (Medex) is placed in the marginal vein of the same ear. Saline or a GP IIb IIIa receptor antagonist, at a concentration of 1 to 3 mg/ml, is infused via the venous catheter. At time 0, 41% of the dose is given as a bolus over 2 minutes. The remainder is continuously infused over the following 60 minutes. Blood samples (3.2 ml) are collected into syringes without needles via the arterial catheter at -10, -5, 10, 45, and 60 minutes. The first 0.5 ml is discarded and the following 2.7 ml is collected directly into a syringe containing 0.3 ml of 3.8% sodium citrate. The sample is divided into 1.5 ml aliquots and centrifuged at room temperature for 5 seconds at 12,000 G. The resulting platelet rich plasma (PRP) is used to measure ex-vivo platelet aggregation (XPA). At -10 and 60 minutes an additional 1 cml sample is drawn for an automated blood count (Baker instruments). Catheters are flushed and locked after every sample.
CBT is measured at -10, -5, 10, and 45 minutes on the opposite ear, using an automated incision-making instrument (Surgicutt®, ITD). An incision (5mm×1 mm deep) is made on the dorsal surface of the ear at sites not supplied by major blood vessels. Blood is blotted away with absorbent paper placed near the incision site, every 2 to 15 seconds, to a maximum of 15 minutes. Cessation of bleeding is defined as no blood forming at the incision site for 15 seconds. The range of duplicate CBT in 40 normal rabbits was 0.88 to 3.38 minutes.

[6] = GP IIb IIIa-coated plates, vWF, read-out: ELISA IC50 GPIIb IIIa vWF

GP IIb IIIa, sequence (P08514 32-887 limits assumed): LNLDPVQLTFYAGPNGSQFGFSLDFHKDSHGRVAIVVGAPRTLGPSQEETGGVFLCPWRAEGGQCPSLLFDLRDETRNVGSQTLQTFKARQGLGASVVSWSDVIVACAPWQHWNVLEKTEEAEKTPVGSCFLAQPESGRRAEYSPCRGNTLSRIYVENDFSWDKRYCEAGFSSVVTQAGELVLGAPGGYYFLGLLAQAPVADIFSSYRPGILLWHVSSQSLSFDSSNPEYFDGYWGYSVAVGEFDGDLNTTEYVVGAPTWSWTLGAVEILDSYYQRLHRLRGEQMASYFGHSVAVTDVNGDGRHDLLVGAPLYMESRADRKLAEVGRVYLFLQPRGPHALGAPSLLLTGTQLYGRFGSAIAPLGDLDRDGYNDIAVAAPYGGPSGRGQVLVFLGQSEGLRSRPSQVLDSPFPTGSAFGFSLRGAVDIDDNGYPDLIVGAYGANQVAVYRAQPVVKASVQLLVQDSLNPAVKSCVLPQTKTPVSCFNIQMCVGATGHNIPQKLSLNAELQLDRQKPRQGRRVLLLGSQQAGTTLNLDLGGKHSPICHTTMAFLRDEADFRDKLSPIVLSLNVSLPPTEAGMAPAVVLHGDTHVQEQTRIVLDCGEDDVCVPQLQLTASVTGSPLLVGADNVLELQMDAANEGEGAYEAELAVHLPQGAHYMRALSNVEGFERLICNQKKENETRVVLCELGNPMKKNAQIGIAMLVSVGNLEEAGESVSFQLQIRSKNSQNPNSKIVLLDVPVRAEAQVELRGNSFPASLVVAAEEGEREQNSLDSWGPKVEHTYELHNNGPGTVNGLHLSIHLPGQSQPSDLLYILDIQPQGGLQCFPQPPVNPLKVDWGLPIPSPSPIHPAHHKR
GP IIb IIIa, sequence (P08514 891-1039 partner limits assumed): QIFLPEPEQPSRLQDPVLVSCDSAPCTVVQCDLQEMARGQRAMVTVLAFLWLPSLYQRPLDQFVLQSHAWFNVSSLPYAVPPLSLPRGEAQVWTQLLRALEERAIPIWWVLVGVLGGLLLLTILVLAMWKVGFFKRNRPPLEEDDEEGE
GP IIb IIIa, sequence (P05106 27-788): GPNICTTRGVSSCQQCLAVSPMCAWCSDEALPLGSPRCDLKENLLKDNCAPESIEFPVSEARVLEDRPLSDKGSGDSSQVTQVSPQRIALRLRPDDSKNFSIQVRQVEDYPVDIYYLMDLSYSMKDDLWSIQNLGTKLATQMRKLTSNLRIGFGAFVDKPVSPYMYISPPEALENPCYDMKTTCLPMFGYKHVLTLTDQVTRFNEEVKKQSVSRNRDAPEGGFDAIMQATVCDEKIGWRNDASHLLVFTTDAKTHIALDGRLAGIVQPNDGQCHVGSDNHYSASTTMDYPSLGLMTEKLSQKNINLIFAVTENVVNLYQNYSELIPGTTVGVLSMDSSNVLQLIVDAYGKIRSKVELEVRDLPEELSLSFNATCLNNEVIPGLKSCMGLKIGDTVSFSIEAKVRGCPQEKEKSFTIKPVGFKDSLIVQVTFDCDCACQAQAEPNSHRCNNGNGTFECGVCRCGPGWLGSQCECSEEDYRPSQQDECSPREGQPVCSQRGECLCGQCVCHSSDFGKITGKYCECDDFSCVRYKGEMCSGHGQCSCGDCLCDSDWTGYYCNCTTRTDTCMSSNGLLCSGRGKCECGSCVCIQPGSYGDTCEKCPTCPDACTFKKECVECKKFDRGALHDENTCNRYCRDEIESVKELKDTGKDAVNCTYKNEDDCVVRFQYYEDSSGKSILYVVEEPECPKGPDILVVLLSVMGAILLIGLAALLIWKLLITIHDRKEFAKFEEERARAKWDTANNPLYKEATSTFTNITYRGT
Fibronectin Receptor, sequence (P08648 42-894 limits assumed): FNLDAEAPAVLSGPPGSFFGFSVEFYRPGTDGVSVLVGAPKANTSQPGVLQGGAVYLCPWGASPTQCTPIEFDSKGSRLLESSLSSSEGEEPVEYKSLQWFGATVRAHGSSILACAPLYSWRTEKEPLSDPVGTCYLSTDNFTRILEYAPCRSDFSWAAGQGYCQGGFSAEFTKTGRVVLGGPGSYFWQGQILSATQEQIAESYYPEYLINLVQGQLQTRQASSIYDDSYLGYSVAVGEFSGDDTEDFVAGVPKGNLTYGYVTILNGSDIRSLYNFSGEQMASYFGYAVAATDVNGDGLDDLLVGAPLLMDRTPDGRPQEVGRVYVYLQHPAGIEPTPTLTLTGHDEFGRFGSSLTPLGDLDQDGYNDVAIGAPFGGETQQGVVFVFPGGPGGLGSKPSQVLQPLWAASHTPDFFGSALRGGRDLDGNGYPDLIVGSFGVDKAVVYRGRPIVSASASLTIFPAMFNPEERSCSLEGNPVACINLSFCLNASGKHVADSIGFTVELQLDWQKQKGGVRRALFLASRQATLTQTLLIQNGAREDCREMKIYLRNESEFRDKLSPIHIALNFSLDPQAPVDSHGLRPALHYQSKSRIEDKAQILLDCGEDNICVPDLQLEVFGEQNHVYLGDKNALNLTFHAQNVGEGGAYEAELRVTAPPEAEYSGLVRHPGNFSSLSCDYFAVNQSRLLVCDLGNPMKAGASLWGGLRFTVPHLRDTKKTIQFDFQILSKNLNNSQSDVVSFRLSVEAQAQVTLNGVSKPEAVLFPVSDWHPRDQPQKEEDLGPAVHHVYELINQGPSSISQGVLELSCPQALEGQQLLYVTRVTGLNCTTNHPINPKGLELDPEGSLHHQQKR
Fibronectin Receptor, sequence (P08648 895-1049 partner limits assumed): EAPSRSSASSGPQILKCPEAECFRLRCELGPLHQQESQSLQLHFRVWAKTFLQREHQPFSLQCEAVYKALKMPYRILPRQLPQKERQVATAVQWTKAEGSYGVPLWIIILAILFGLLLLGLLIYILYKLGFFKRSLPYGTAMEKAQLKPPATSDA
Fibronectin Receptor, sequence (P05556 21-798): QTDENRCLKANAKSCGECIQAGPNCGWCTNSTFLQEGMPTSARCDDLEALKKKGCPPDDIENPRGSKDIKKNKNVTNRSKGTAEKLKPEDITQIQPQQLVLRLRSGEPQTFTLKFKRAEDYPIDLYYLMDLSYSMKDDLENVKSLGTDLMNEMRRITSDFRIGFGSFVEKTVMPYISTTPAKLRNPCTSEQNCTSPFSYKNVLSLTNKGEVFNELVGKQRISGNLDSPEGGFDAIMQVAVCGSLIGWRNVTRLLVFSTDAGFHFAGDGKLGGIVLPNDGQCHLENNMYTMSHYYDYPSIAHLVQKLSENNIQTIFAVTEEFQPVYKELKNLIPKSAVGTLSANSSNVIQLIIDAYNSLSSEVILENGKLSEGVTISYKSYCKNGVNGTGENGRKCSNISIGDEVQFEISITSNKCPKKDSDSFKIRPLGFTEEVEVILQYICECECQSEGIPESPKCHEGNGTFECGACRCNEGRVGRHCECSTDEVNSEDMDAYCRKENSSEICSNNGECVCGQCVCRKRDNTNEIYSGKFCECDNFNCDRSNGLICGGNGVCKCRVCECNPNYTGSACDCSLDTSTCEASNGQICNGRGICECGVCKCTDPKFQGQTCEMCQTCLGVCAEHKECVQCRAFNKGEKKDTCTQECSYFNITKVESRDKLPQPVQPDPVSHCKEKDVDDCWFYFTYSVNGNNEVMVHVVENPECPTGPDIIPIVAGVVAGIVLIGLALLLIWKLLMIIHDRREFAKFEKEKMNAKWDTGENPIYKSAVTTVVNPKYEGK

Row | SMILES | IC50 ([1]; unit inferred, read-out: IC50 in the GPIIb IIIa -vWF ELISA) | bleeding time, preinfusion value ([2]; before infusion (baseline)) | bleeding time during the infusion [2] | IC50 [3] | Rabbit % P.A. Inhibition (ex vivo) [4] | increase in cutaneous bleeding time ([5]; dosed to 100% inhibition of platelet aggregation) | Rabbit BT Ratio ([5]; rabbit) | IC50 [1, 6] | bleeding time, result in words ([2]; 300 μg/kg bolus plus an infusion of 7.2 μg/kg/min) | increase in cutaneous bleeding time ([5]; dosed to 95% inhibition of platelet aggregation) | bleeding time, result in words ([2]; 200 μg/kg bolus plus an infusion of 4.8 μg/kg/min) | cutaneous bleeding time, result in words [5] | increase of cutaneous bleeding time compared to the undosed animal ([5]; rabbit, dose sufficient to achieve about 97% inhibition of platelet aggregation)
1 | N=C(N)NCCC[C@H](NC(=O)[C@@H]1CSCC(=O)N[C@H](Cc2ccc(O)cc2)C(=O)N[C@@H](CCCNC(=N)N)C(=O)NCC(=O)N[C@@H](CC(=O)O)C(=O)N1)C(N)=O [7/1, cyclo-S-acetyl-dTyr--Arg--Gly--Asp--Cys--Arg--NH2] ({CH2CO}-[dY]RGDCR-NH2; thioether N-5) | 13.8 nM | 3 min | 6.25 min | 57 nM | 100% | 1.17 times | 1.7 |  |  |  |  |  | 
2 | N=C(N)NCCC[C@@H]1NC(=O)[C@@H](Cc2ccc(O)cc2)NC(=O)CSC[C@@H](C(=O)N[C@@H](CCCCN)C(N)=O)NC(=O)[C@H](CC(=O)O)NC(=O)CNC1=O [7/3, cyclo-S-acetyl-dTyr--Arg--Gly--Asp--Cys--Lys--NH2] ({CH2CO}-[dY]RGDCK-NH2; thioether N-5) |  |  |  | 201 nM | 97% |  | 1.95 | 15.9 nM | without prolongation of the bleeding time | 1.95 times |  |  | 
3 | N=C(N)NCCC[C@@H]1NC(=O)[C@@H](Cc2ccc(O)cc2)NC(=O)CSC[C@@H](C(=O)N[C@@H](CCCN)C(N)=O)NC(=O)[C@H](CC(=O)O)NC(=O)CNC1=O [7/5, cyclo-S-acetyl-dTyr--Arg--Gly--Asp--Cys--Orn--NH2] ({CH2CO}-[dY]RGDC[Orn]-NH2; thioether N-5) |  |  |  | 63 nM | 100% |  | 1.26 | 6.84 nM |  |  | minimal prolongation of bleeding |  | 
4 | N=C(N)NCCC[C@@H]1NC(=O)[C@@H](Cc2ccc(O)cc2)NC(=O)CSC[C@@H](C(=O)O)NC(=O)[C@H](CC(=O)O)NC(=O)CNC1=O [7/46, cyclo-S-acetyl-dTyr--Arg--Gly--Asp--Cys--OH] ({CH2CO}-[dY]RGDC-OH; thioether N-5) |  |  | > 30 min | 3390 nM | 99% and 55% |  |  | 0.18 nM |  |  |  | prolongation of bleeding time in vivo in both the rabbit and dog model | 8.0 times
